The text below walks through data of patent publication US6887902B2, “Anti-inflammatory method using gamma-aminobutyric acid (GABA) analogs” (Warner-Lambert Company, priority 1997, dated 2005).

Assay [1] deals with SCW (PG-PS) induced reactivation arthritis, ankle swelling. The assay is described as follows: streptococcal cell wall (SCW) induced reactivation arthritis assay. The format is in vivo, Female Lewis rats. The protocol:
The assay is a streptococcal cell wall (SCW) induced reactivation arthritis assay. Female Lewis rats were injected intra-articularly with 10 μL of 100 p fraction peptidoglyean polysaccharide (PG-PS) suspended in phosphate buffered saline (PBS). The contralateral joints were injected with PBS as control. Systemic challenge with 100 μg of PG-PS was given via the tail vein 21 days after the initial inoculation. The animals were dosed orally three times a day with pregabalin (3, 10, and 30 mg/kg) on a 12-hour cycle for 72 hours. The first dose was given 1 hour before the systemic challenge.
The volume of the ankles increased by about 0.5 mL within 72 hours. Pregabalin at 10 and 30 mg/kg dose dependently attenuated the increase in edema up to 40% during the 72-hour observation period.

The subject of assay [2] is kaolin and carrageenan knee joint arthritis. The assay is described as follows: acute experimental arthritis by kaolin and carrageenan in the knee joint, spinal infusion of pregabalin or its R-isomer. As to conditions: for PWL (thermal paw withdrawal latency) compared to baseline: 10 mg/mL infused into dorsal horn alone, before induction of arthritis; for thermal hyperalgesia (PWL) at 5.5 hours: 0.9 mg/mL infused into dorsal horn after development of arthritis; for PWL after infusion: 10 mg/mL infused after inflammation of the knee joint; for spontaneous pain (paw posture): both doses (0.9 and 10 mg/mL); for secondary thermal hyperalgesia (PWL) / abnormal paw posture indicative of spontaneous pain / reduction of knee joint swelling compared to aCSF rats: pre-treatment; for secondary thermal hyperalgesia (PWL): 10 mg/mL spinal infusion for 1.5 hours before kaolin and carrageenan, 4 hours post-injection; for abnormal paw posture indicative of spontaneous pain: spinal infusion before induction of arthritis; for reduction of knee joint swelling compared to aCSF rats: spinal infusion for 1.5 hours before induction of arthritis, P<0.05.
Description: Acute experimental arthritis was induced in rats by injection of kaolin and carrageenan into the knee joint. […] Concomitant with the injury to the joint tissue, both peripheral and central sensitization occurs, which is manifested in the awake rat as hyperalgesia, which can be easily quantified by measuring a reduction in paw withdrawal latencies to a radiant heat source. Both pregabalin and its R-stereoisomer (R-(−)-3-IBG) were administered before inflammation was induced, and after the inflammation was developed.
Thirty-six male Sprague-Dawley rats (235-380 g) were anesthetized with sodium pentobarbital (Nembutal; 50 mg/kg^−1 i.p.). A microdialysis fiber (200 μm o.d., 45000 MW Cut-off, Hospal AN69) was coated with epoxy resin, except for a 2 mm section. A small midline incision was made in the back at the level of the last rib. The muscle was then removed from around the T12 vertebra and a hole drilled in both lateral aspects. The microdialysis fiber was then passed transversely through the dorsal horn of the spinal cord between lumbar segments L4-L6 so that the permeable 2 mm of the fiber lay in the dorsal horn. The microdialysis fiber was connected to PE20 tubing (Becton and Dickson) which was then tunneled under the skin to the nape of the neck. The fiber was stabilized with dental cement. Artificial cerebrospinal fluid (aCSF) was pumped through the tubing at a rate of 5 μL/min for 1 hour before the PE20 was sealed and the animals allowed to recover.
As a measure of thermal hyperalgesia, animals were tested for paw withdrawal to radiant heat. On the day following fiber placement, animals were housed in small lucite cubicles on an elevated glass plate. Radiant heat was applied to the plantar surface of the heel of the hindpaw until the rat lifted the paw. The time at which this occurred was considered the paw withdrawal latency (PWL). Both paws were tested independently at 5-minute intervals, for a total of 5 trials. A mean of these five readings was used as the PWL. […] PWL was measured for a final time 4 hours after arthritis induction. In the post-treatment group, the animals were tested before induction of arthritis in the knee joint (control), 4-hours post-induction, and 1.5 hours after of drug infusion, i.e. 5.5 hours after arthritis induction. A decrease in the PWL to radiant heat in an animal with knee joint inflammation is indicative of secondary hyperalgesia.
The circumference of the knee joint was also measured before injection of kaolin and carrageenan (control) using a flexible tape measure. The extent of guarding of the hindpaw was also noted after arthritis was induced. To quantify these changes, the animals were graded by a subjective pain rating scale (0-5), where: 0 is normal; 1 is curling of the toes; 2 is eversion of the paw; 3 is partial weight bearing; 4 is non-weight bearing and guarding; and 5 is avoidance of any contact with the hindlimb.
Rats were anesthetized briefly with sodium methohexital (Brevital; 60 mg/kg^−1 i.p.) after the control behavioral test (post-treatment group) or after infusion of the drug (pre-treatment group). The knee joint was then injected with 3% kaolin and 3% carrageenan suspended in sterile saline (0.1 mL; pH 7.4). The knee joint was then flexed manually until the rat awoke (approximately 5 minutes).
All GABA analogs were dissolved in an artificial cerebral spinal fluid solution (aCSF) (pH 7.4, adjusted by bubbling with 95% CO2/5% O2) and infused through the spinal cord at 5 μL/min^−1. The animals received either pregabalin, R-(−)-3-IBG, or aCSF.

In the case of `CC(C)C[C@H](CN)CC(=O)O` [Pregabalin, (S)-3-(aminomethyl)-5-methylhexanoic acid], the “attenuation of the increase in edema” value in assay [1] (10 and 30 mg/kg oral, dose dependent, 72-hour observation period) is reported as “up to 40%”. Also, the “Swelling (delta edema, mL)” value in assay [1] (Day 22, pregabalin oral 3.0 mg/kg, vehicle group 0.20) was determined as 0.12 mL; in assay [1] (Day 22, pregabalin oral 10.0 mg/kg, vehicle group 0.20), 0.04 mL; in assay [1] (Day 22, pregabalin oral 30.0 mg/kg, vehicle group 0.20) it was 0.06 mL; in assay [1] (Day 23, pregabalin oral 3.0 mg/kg, vehicle group 0.45) it was 0.38 mL; in assay [1] (Day 23, pregabalin oral 10.0 mg/kg, vehicle group 0.45), 0.25 mL; in assay [1] (Day 23, pregabalin oral 30.0 mg/kg, vehicle group 0.45), 0.20 mL. Moreover, the “Swelling (delta edema, mL)” value worked out at 0.50 mL in assay [1] (Day 24, pregabalin oral 3.0 mg/kg, vehicle group 0.50); 0.31 mL in assay [1] (Day 24, pregabalin oral 10.0 mg/kg, vehicle group 0.50); 0.21 mL in assay [1] (Day 24, pregabalin oral 30.0 mg/kg, vehicle group 0.50). Moreover, in assay [2], the “PWL (thermal paw withdrawal latency) compared to baseline” value is “did not change PWL”. The “thermal hyperalgesia (PWL) at 5.5 hours” value in assay [2] (post-treatment) is “reduced the thermal hyperalgesia”. Moreover, the PWL after infusion entry in assay [2] (post-treatment) is “return of the PWL to the control value”. In addition, the “spontaneous pain (paw posture)” value in assay [2] (post-treatment) is “spontaneous pain was also reduced”. Moreover, in assay [2] (post-treatment, spinal infusion), the “comparison of the isomers in reducing thermal hyperalgesia” value was “more effective in reducing thermal hyperalgesia than its R-isomer”. In assay [2], the “secondary thermal hyperalgesia (PWL)” value was “no secondary thermal hyperalgesia was observed”. The “abnormal paw posture indicative of spontaneous pain” value in assay [2] is on record as “prevented the development of abnormal paw posture”. Besides, in assay [2], the “reduction of knee joint swelling compared to aCSF rats” value was “approximately 30%”.

As for `CC(C)C[C@@H](CN)CC(=O)O` [R-(−)-3-IBG], in assay [2], the “PWL (thermal paw withdrawal latency) compared to baseline” value is on record as “did not change PWL”, the “secondary thermal hyperalgesia (PWL)” value was “no secondary thermal hyperalgesia was observed”, the “abnormal paw posture indicative of spontaneous pain” value is “prevented the development of abnormal paw posture” and the “reduction of knee joint swelling compared to aCSF rats” value is “approximately 30%”. For the same compound, in assay [2] (post-treatment), the “thermal hyperalgesia (PWL) at 5.5 hours” value is recorded as “reduced the thermal hyperalgesia”, the PWL after infusion result is “return of the PWL to the control value” and the “spontaneous pain (paw posture)” value is reported as “spontaneous pain was also reduced”.
